Reference: patent publication US9872870B2, “Multifunctional micellar nanoparticle-based drug and targeting agent system” (University of Notre Dame du Lac, priority 2011, dated 2018)

Columns and labels:
[1] = Systemic toxicity in tumor bearing mice (body weight, lethality, blood count, organ weights, histopathology); type: in vivo, CB.17 SCID mice
Method: (§1) To validate the therapeutic efficacy of multifunctional nanoparticles, CB.17 SCID mice (Harlan Laboratories) were irradiated with 150 rad, and were inoculated subcutaneously with 5×10^6 NCI-H929 cells. […] When the tumors were palpable, each mouse was injected with the drug, intravenously, on days 1, 3, and 5. […] Animals were monitored for body weight and tumor volume by caliper measurements. Tumor growth inhibition was detected by caliper measurements (left). Data shown are means (±SE) of n=6-8 per treatment group. Statistical comparisons of continuous variables were carried out by Student's two-tailed t-test and were considered significant when P<0.05.
(§2) For determination of systemic toxicity, 3 additional mice from each group were sacrificed on day 5 before any lethality was observed. Organ weights were measured. For complete blood count analysis, 200 μl of blood was drawn from each mouse via cardiac puncture, immediately mixed with 50 μl of Sequester Solution (Cambridge Diagnostic Products), and was analyzed with the HemaVet950 (Drew Scientific). Immunohistochemical staining of excised tumors for caspase-3 was performed as previously described.
To evaluate systemic toxicity, analysis of complete blood cell count, which is highly susceptible to chemotherapeutic agents, was performed. Three mice from each group were dissected on day 5, and complete blood count (white blood cell, red blood cell, and thrombocyte) was performed (FIG. 12e). Data represents means (±SE). *P<0.05, when compared to free Dox group.

[2] = test system: NCI-H929 subcutaneous xenograft; experiment: Subcutaneous xenograft model of MM, tumor growth; type: in vivo, CB.17 SCID mice; settings: 6 mg/kg Dox equivalents iv on days 1, 3 and 5
Method: as §1, §2
Three mice from each group were dissected on day 5 and tumors were stained for activated caspase-3. Representative images of tumor cross-sections that were captured using a Nikon Eclipse TS100 microscope at 20× magnification are shown.

[3] = test system: NCI-H929 cells; experiment: Cytotoxicity on fibronectin or BSA coated plates (CAM-DR)
Method: Cytotoxicity assays: Cytotoxicity was determined using Cell Counting Kft-8 (Dojindo) as previously described. […] In all cases, cell viability was assessed by cell counting kit-8 (CCK-8), and data represent means (±SD) of triplicate cultures.
Cell viability was assessed by cell counting kit-8 (CCK-8), and data represent means (±SD) of triplicate cultures.

[4] = test system: NCI-H929 cells; experiment: DNA double strand breaks and apoptosis (western blot, immunocytochemistry, Annexin V); type: cell-based, human; settings: 250 nM Dox equivalents, 0-48 h
Method: It is well established that Dox induces DNA double strand breaks (DSBs) and apoptosis of cancer cells. An early specific cellular response to DSBs in mammalian cells is the phosphorylation of the histone protein H2AX (γ-H2AX), with respective foci formation. Therefore, we examined whether free Dox and NPDox/VLA-4-pep triggered similar signaling cascades of DNA damage and apoptosis in MM cells. […] Phosphorylation of DNA damage response protein H2AX at Ser139 was assayed by western blotting (FIG. 10a). Respective H2AX foci formation was assayed by immunocytochemistry (FIG. 10b). Apoptosis was assessed by flow cytometry following Annexin V-FITC staining (FIG. 10c), and by western blotting for PARP cleavage and caspase-8 and caspase-9 activation (FIG. 10d).
For immunocytochemistry analysis, cytospins of drug-treated cells were prepared on glass slides and fixed with 4% paraformaldehyde. Slides were blocked with 5% goat serum, incubated with y-H2AX antibody (Cell Signaling) overnight at 4° C., and then with AlexaFluor-488-labelled Fab2 (Molecular Probes). Coverslips were then mounted on the glass slides with VectaShield antifade/DAR (Vector Labs) and analyzed by Nikon Eclipse TS100 fluorescence microscope at 60×/0.5-1.25 oil, with a Nikon Infinity camera. For flow cytometric analysis, data represent means (±SD) of triplicate experiments. For western blotting, representative images are shown, and all antibodies were purchased from Cell Signaling.

[5] = test system: NCI-H929 MM cells; experiment: Cytotoxicity assay (Cell Counting Kit-8); type: cell-based, human; settings: Dox equivalents
Method: To determine cytotoxicity in the presence of fibronectin, MM cells were plated on fibronectin coated plates (40 μg/ml), in adhesion buffer, for 1 h. […] BSA coated plates were used as controls.

With `COc1cccc2c1C(=O)c1c(O)c3c(c(O)c1C2=O)C[C@@](O)(C(=O)CO)C[C@@H]3O[C@H]1C[C@H](N)[C@H](O)[C@H](C)O1` [free Dox, doxorubicin] the lethality ([1]; 6 mg/kg Dox equivalents iv on days 1, 3 and 5) was “lethality of all mice on day 7”, the “body weight loss” value ([1]; 6 mg/kg iv on days 1, 3 and 5) was “significant loss of body weight” and the “liver mass loss and histopathology” value ([1]; day 5) was “moderate hepatocellular hypertrophy and degeneration”. For the same compound, the “spleen mass loss and histopathology” value ([1]; day 5) was “severe fibrosis”, the tumor growth inhibition [2] was “dramatic tumor growth inhibition” and the “IC50, cytotoxicity in the presence of fibronectin” value [3] was 0.421-0.09 μM. For the same compound, the “IC50 shift caused by adhesion to fibronectin (CAM-DR)” value ([3]; fibronectin vs BSA coated plates, 72 h) was 3 fold, the H2AX phosphorylation [4] was “induced H2AX phosphorylation” and the “apoptosis (annexin V, PARP and caspase-8 activation)” value [4] was “induced apoptosis”. The caspase-9 activation [4] was “No significant caspase-9 activation”, the IC50 ([5]; NCI-H929, 48 h) was 190 ± 40 nM and the IC50 ([5]; NCI-H929, 72 h) was about 130 nM.
